# Assay results taken from publication PMC10101490 (The Journal of Biological Chemistry, 2023).
# Molecular target: α7 nAChR (Homo sapiens, UniProt P36544)
# Assay: cell-based
# Design: expressed in transfected cells; host or cells: Xenopus laevis oocytes injected with cRNA transcribed from α7-pSHE; species or system Human (expressed in Xenopus laevis oocytes)
# Settings: Inhibition phase potency
# α7 nAChR, sequence (P36544 23-502 limits assumed): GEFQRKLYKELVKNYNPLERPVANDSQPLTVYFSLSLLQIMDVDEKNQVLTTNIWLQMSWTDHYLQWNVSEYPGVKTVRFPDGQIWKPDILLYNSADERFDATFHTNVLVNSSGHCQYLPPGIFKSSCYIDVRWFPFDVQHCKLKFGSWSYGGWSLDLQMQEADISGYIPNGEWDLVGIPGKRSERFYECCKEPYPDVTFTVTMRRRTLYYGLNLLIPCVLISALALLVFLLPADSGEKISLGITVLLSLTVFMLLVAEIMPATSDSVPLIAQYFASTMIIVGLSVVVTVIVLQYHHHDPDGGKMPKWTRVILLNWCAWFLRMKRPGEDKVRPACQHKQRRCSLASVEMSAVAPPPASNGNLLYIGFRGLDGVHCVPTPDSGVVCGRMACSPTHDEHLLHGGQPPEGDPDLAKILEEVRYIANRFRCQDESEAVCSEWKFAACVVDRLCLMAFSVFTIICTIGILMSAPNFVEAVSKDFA
smiles,measurement,value
CC[C@H](C)[C@H](NC(=O)CNC(=O)[C@H](C)NC(=O)CNC(=O)[C@@H](NC(=O)[C@@H]1CCCN1C(=O)[C@@H](NC(=O)[C@H](CC(=O)O)NC(=O)[C@H](CS)NC(=O)[C@H](CCC(=O)O)NC(=O)[C@@H](N)Cc1ccc(O)cc1)[C@@H](C)CC)[C@@H](C)CC)C(=O)N[C@@H](CS)C(=O)N[C@@H](C)C(=O)N[C@@H](CO)C(=O)N[C@@H](Cc1ccc(O)cc1)C(=O)N[C@@H](CCC(N)=O)C(=O)N[C@H](C(=O)N[C@@H](CCC(N)=O)C(=O)N[C@H](C(=O)N[C@@H](CC(N)=O)C(=O)N[C@@H](CO)C(=O)N[C@@H](CCCNC(=N)N)C(=O)N[C@@H](CCCNC(=N)N)C(=O)N[C@@H](CCCNC(=N)N)C(=O)N[C@@H](C)C(=O)N[C@@H](CCCNC(=N)N)C(=O)N[C@@H](CO)C(=O)N[C@H](C(=O)N[C@@H](C)C(=O)N[C@@H](CO)C(=O)O)C(C)C)[C@@H](C)O)[C@@H](C)O [delta SCoV2P],IC50,100 µM
